# Target: T1, MBP-ANLRP3-HIS (Homo sapiens, UniProt Q96P20, K142A)
# T1 construct: made in house; host or cells: Sf21 (IPLB-Sf21-AE) insect cells
# Test: ATPase activity, ADP-Glo Kinase Assay (Promega)
# Format: biochemical
# Details: read-out: Km of ATP
# Protocol: Peptide mass fingerprinting confirmed the protein identity while intact mass analysis confirmed the overall integrity of the protein and indicated the loss of the amino-terminal methionine. The theoretical molecular weight and isoelectric point (pI) of MBP-NLRP3-HIS are 145.30 kDa and 6.2, respectively. […] MBP-ANLRP3-HIS protein functionality was assessed based on ATPase activity using an ADP-Glo Kinase Assay (Promega). […] This protein construct was shown via its ATPase activity to have acceptable stability up to 2 hours in conditions mimicking one round of selection in the DEL screen.
compound,measurement,value
Nc1ncnc2c1ncn2[C@@H]1O[C@H](COP(=O)(O)OP(=O)(O)OP(=O)(O)O)[C@@H](O)[C@H]1O [ATP],Km,3.08 µM
